Experimental data taken from ChEMBL document CHEMBL5316330, “Design of an Ultralow Molecular Weight Heparin That Resists Heparanase Biodegradation” (J Med Chem, 2023).
Active and inactive are the calls of the source. No cut-off for these calls is given here.

How the values were obtained:
[1] = Stability of compound assessed as heparanase-mediated compound degradation by measuring retention time at 20 ug incubated overnight by LC-MS analysis (reference value: 17 mins); type: physicochemical; details: dose 20 µg
Coagulation factor X [2] = biological target: T1, Coagulation factor X (Homo sapiens, UniProt P00742); assay: Inhibition of human factor Xa using S-2765 as substrate at 7 to 3600 ng/ml preincubated with antithrombin for 3 mins followed by incubation with factor Xa for 2 mins and further incubated with substrate for 5 mins by absorbance based assay; details: dose 7-3600 ng/ml, time 10.0 min
[3] = Stability of compound assessed as heparanase-mediated compound degradation by measuring retention time at 20 ug incubated overnight by LC-MS analysis (reference value: 10 mins); type: physicochemical; details: dose 20 µg
Coagulation factor X [4] = biological target: T1, Coagulation factor X; assay: Inhibition of human factor Xa using S-2765 as substrate preincubated with antithrombin for 3 mins followed by incubation with factor Xa for 2 mins and further incubated with substrate for 5 mins by absorbance based assay
Coagulation factor X [5] = biological target: T1, Coagulation factor X; assay: Potency index, ratio of Enoxaparin IC50 to test compound IC50 for factor Xa (unknown origin) by ACTICHROME heparin assay
Mus musculus [6] = assay: Anticoagulant activity in C57BL/6 mouse model of non-occlusive venous thrombosis assessed as inhibition of factor Xa in plasma at 12 ug/g, sc treated for 1 hr prior to electrolytic injury and 24 hrs after injury; type: functional; details: dose 12 µg/g, time 25 hrs
Mus musculus [7] = assay: Anticoagulant activity in C57BL/6 mouse model of non-occlusive venous thrombosis assessed as average IVC weight at 4 ug/g, sc treated for 4 hrs prior to electrolytic injury and 24 hrs after injury (reference value: 31.5 +/- 2.3 mg); type: functional; details: dose 4 µg/g, time 28 hrs
Mus musculus [8] = assay: Anticoagulant activity in C57BL/6 mouse model of non-occlusive venous thrombosis assessed as average IVC weight at 12 ug/g, sc treated for 1 hr prior to electrolytic injury and 24 hrs after injury (reference value: 31.5 +/- 2.3 mg); type: functional; details: dose 12 µg/g, time 25 hrs
Mus musculus [9] = assay: Anticoagulant activity in C57BL/6 mouse model of non-occlusive venous thrombosis assessed as average bleeding time at 12 ug/g, sc treated for 1 hr prior to electrolytic injury and 24 hrs after injury (reference value: 81 +/- 3 mg); type: functional; details: dose 12 µg/g, time 25 hrs

T1 sequence (P00742 41-179 limits assumed): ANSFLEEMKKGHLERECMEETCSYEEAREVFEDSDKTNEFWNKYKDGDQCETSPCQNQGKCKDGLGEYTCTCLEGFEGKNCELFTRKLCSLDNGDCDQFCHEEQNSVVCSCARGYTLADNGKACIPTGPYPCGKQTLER
T1 sequence (P00742 235-488 limits assumed): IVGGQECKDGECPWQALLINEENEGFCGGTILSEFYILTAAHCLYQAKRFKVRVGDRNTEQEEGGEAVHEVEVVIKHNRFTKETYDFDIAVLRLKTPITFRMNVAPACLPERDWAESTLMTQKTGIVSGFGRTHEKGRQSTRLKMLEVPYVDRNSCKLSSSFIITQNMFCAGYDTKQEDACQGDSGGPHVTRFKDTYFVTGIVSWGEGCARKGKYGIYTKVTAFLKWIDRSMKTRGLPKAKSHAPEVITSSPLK

| Retention_time [1] [min] | inhibition (Coagulation factor X [2]) | Retention_time [3] [min] | IC50 (Coagulation factor X [4]) [nM] | fold change (FC) (Coagulation factor X [5]) | SMILES | Activity (Mus musculus [6]) [IU/ml] | Activity (Mus musculus [7]) [mg] | Activity (Mus musculus [8]) [mg] | Activity (Mus musculus [9]) [mg] |
| --- | --- | --- | --- | --- | --- | --- | --- | --- | --- |
| 22 | inactive |  |  |  | O=C(O)[C@H]1O[C@@H](Oc2ccc([N+](=O)[O-])cc2)[C@H](O)[C@@H](O)[C@@H]1O[C@H]1O[C@H](COS(=O)(=O)O)[C@@H](O[C@@H]2O[C@@H](C(=O)O)[C@H](O[C@H]3O[C@H](COS(=O)(=O)O)[C@@H](O[C@@H]4O[C@H](C(=O)O)[C@@H](O[C@H]5O[C@H](COS(=O)(=O)O)[C@@H](O)[C@H](O)[C@H]5NS(=O)(=O)O)[C@H](O)[C@H]4O)[C@H](OS(=O)(=O)O)[C@H]3NS(=O)(=O)O)[C@H](O)[C@H]2OS(=O)(=O)O)[C@H](O)[C@H]1NS(=O)(=O)O |  |  |  |  |
|  |  | 15 | 177 | 3 | O=C(O)[C@H]1O[C@@H](O[C@H]2[C@H](O)[C@@H](NS(=O)(=O)O)[C@@H](O[C@@H]3[C@H](O)[C@@H](OS(=O)(=O)O)[C@H](O[C@H]4[C@H](OS(=O)(=O)O)[C@@H](NS(=O)(=O)O)[C@@H](O[C@H]5[C@H](O)[C@@H](OS(=O)(=O)O)[C@H](O[C@@H]6[C@H](O)[C@@H](NS(=O)(=O)O)[C@@H](O[C@H]7[C@H](O)[C@@H](O)[C@H](Oc8ccc([N+](=O)[O-])cc8)O[C@@H]7C(=O)O)O[C@@H]6COS(=O)(=O)O)O[C@@H]5C(=O)O)O[C@@H]4COS(=O)(=O)O)O[C@H]3C(=O)O)O[C@@H]2COS(=O)(=O)O)[C@H](O)[C@@H](O)[C@@H]1O | 0.55 | 13.9 | 18.8 | 143 |
